Results from US11174250B2, “Substituted carboxamides as inhibitors of WDR5 protein-protein binding” (PROPELLON THERAPEUTICS INC., priority 2016, dated 2021).
Like-named read-outs stand apart in the source and are kept apart here.

Target: WDR5 protein (Homo sapiens (Human), UniProt P61964)
Assay: Surface Plasmon Resonance (SPR) assay
Assay type: binding
Conditions: SPR; for residence time: τ=1/koff, read-out: Residence Time (t, min)
[1] = Table 1, read-out: WDR5 binding affinity (KD)
[2] = Table 2, read-out: WDR5 binding affinity SPR (KD)

| SMILES | Kd [1] [nM] | Kd [2] [nM] | residence time [min] |
| --- | --- | --- | --- |
| COc1cc(C(F)(F)F)c(C(=O)Nc2cc(-c3cc(CN4CCOC(C)(C)C4)ccc3F)ccc2N2CCN(C)CC2)cn1 [Example 59, N-(5′-((2,2-dimethylmorpholino)methyl)-2′-fluoro-4-(4-methylpiperazin-1-yl)-[1,1′-biphenyl]-3-yl)-6-methoxy-4-(trifluoromethyl)nicotinamide] | > 200 | > 200 | – |
| COc1cc(C(F)(F)F)c(C(=O)Nc2cc(-c3cc(CN4C5COCC4C5)ccc3F)ccc2N2CCN(C)CC2)cn1 [Example 56, N-(5′-(3-oxa-6-azabicyclo[3.1.1]heptan-6-ylmethyl)-2′-fluoro-4-(4-methylpiperazin-1-yl)-[1,1′-biphenyl]-3-yl)-6-methoxy-4-(trifluoromethyl)nicotinamide] | > 200 | > 200 | – |
| COc1cc(C(F)(F)F)c(C(=O)Nc2cc(-c3cc(CN4CCN(C(C)=O)CC4)ccc3F)ccc2N2CCN(C)CC2)cn1 [Example 54, N-(5′-((4-acetylpiperazin-1-yl)methyl)-2′-fluoro-4-(4-methylpiperazin-1-yl)-[1,1′-biphenyl]-3-yl)-6-methoxy-4-(trifluoromethyl)nicotinamide] | > 200 | > 200 | – |
| COc1cc(C(F)(F)F)c(C(=O)Nc2cc(-c3cc(CN4CCC(N5CCOCC5)CC4)ccc3F)ccc2N2CCN(C)CC2)cn1 [Example 52, N-(2′-fluoro-4-(4-methylpiperazin-1-yl)-5′-((4-morpholinopiperidin-1-yl)methyl)-[,1′-biphenyl]-3-yl)-6-methoxy-4-(trifluoromethyl)nicotinamide] | > 200 | > 200 | – |
| CN1CCCN(c2ccc(-c3cc(CN4CCOCC4)ccc3F)cc2NC(=O)c2cn(C)c(=O)cc2C(F)(F)F)CC1 [Example 89, N-(2′-fluoro-4-(4-methyl-1,4-diazepan-1-yl)-5′-(morpholinomethyl)-[1,1′-biphenyl]-3-yl)-1-methyl-6-oxo-4-(trifluoromethyl)-1,6-dihydropyridine-3-carboxamide] | 235 | 235 | 0.07 |
| CNc1cc(C(F)(F)F)c(C(=O)Nc2cc(-c3cc(CN4CCOCC4)ccc3F)ccc2N2CCN(C)CC2)cn1 [Example 108, N-(2′-fluoro-4-(4-methylpiperazin-1-yl)-5′-(morpholinomethyl)-[1,1′-biphenyl]-3-yl)-6-(methylamino)-4-(trifluoromethyl)nicotinamide] | > 200 | > 200 | – |
| CN1CCN(c2ccc(-c3cc(CN4CCOCC4)ccc3F)cc2NC(=O)c2c[nH]c(=O)cc2C(F)(F)F)CC1COC(=O)C(C)(C)C (centres unmarked) [Example 64, (4-(2′-fluoro-5′-(morpholinomethyl)-3-(6-oxo-4-(trifluoromethyl)-1,6-dihydropyridine-3-carboxamido)-[1,1′-biphenyl]-4-yl)-1-methylpiperazin-2-yl)methyl pivalate] | > 200 | 102 | – |
| CN1CCN(c2ccc(-c3cc(CN4CCOCC4)ccc3F)cc2NC(=O)c2n[nH]c(=O)cc2C(F)(F)F)CC1 [Example 20, N-(2′-fluoro-4-(4-methylpiperazin-1-yl)-5′-(morpholinomethyl)-[1,1′-biphenyl]-3-yl)-6-oxo-4-(trifluoromethyl)-1,6-dihydropyridazine-3-carboxamide] | 76 | 76 | 0.41 |
| COc1cc(C(F)(F)F)c(C(=O)Nc2cc(-c3cc(CN4CC[C@@H](S(C)(=O)=O)C4)ccc3F)ccc2N2CCN(C)CC2)cn1 [Example 57, (R)—N-(2′-fluoro-4-(4-methylpiperazin-1-yl)-5′-((3-(methylsulfonyl)pyrrolidin-1-yl)methyl)-[1,1′-biphenyl]-3-yl)-6-methoxy-4-(trifluoromethyl)nicotinamide] | > 200 | > 200 | – |
| Cc1cc(C(=O)Nc2cc(-c3cc(CN4CCOCC4)ccc3F)ccc2N2CCCN(C)CC2)cc(C)c1F [Example 92, 4-fluoro-N-(2′-fluoro-4-(4-methyl-1,4-diazepan-1-yl)-5′-(morpholinomethyl)-[1,1′-biphenyl]-3-yl)-3,5-dimethylbenzamide] | 394 | 394 | – |
| COc1cc(C(F)(F)F)c(C(=O)Nc2cc(-c3cc(CN4CCN(CC5CC5)CC4)ccc3F)ccc2N2CCN(C)CC2)cn1 [Example 107, N-(5′-((4-(cyclopropylmethyl)piperazin-1-yl)methyl)-2′-fluoro-4-(4-methylpiperazin-1-yl)-[1,1′-biphenyl]-3-yl)-6-methoxy-4-(trifluoromethyl)nicotinamide] | > 200 | > 200 | – |

Now from value to compound:

| Kd [1] [nM] | Kd [2] [nM] | residence time [min] | SMILES |
| --- | --- | --- | --- |
| 7.6 | 8 | 6.7 | C[C@@H]1CN(c2ccc(-c3ccc(C(=O)NC(C)(C)CC(C)(C)C)c(F)c3F)cc2NC(=O)c2c[nH]c(=O)cc2C(F)(F)F)C[C@H](C)N1C [Example 122, N-(2′,3′-difluoro-4′-((2,4,4-trimethylpentan-2-yl)carbamoyl)-4-((3S,5R)-3,4,5-trimethylpiperazin-1-yl)-[1,1′-biphenyl]-3-yl)-6-oxo-4-(trifluoromethyl)-1,6-dihydropyridine-3-carboxamide] |
| 2.5 | 2.5 | 16.4 | C[C@@H]1CN(c2ccc(-c3cc(CNC4CCCCC4)c(F)cc3F)cc2NC(=O)c2c[nH]c(=O)cc2C(F)(F)F)C[C@H](C)N1C [Example 79, N-(5′-((cyclohexylamino)methyl)-2′,4′-difluoro-4-((3S,5R)-3,4,5-trimethylpiperazin-1-yl)-[1,1′-biphenyl]-3-yl)-6-oxo-4-(trifluoromethyl)-1,6-dihydropyridine-3-carboxamide] |
| 19 | 19 | 1.75 | CN1CCN(c2ccc(-c3cc(OCC4CC4)c(F)cc3F)cc2NC(=O)c2c[nH]c(=O)cc2C(F)(F)F)CC1 [Example 21, N-(5′-(cyclopropylmethoxy)-2′,4′-difluoro-4-(4-methylpiperazin-1-yl)-[1,1′-biphenyl]-3-yl)-6-oxo-4-(trifluoromethyl)-1,6-dihydropyridine-3-carboxamide] |
| 9.2 | 9 | 2.3 | C[C@@H]1CN(c2ccc(-c3cc(C(N)=O)c(F)cc3F)cc2NC(=O)c2c[nH]c(=O)cc2C(F)(F)F)C[C@H](C)N1C [Example 121, N-(5′-carbamoyl-2′,4′-difluoro-4-((3S,5R)-3,4,5-trimethylpiperazin-1-yl)-[1,1′-biphenyl]-3-yl)-6-oxo-4-(trifluoromethyl)-1,6-dihydropyridine-3-carboxamide] |
| 8.3 | 829 | 3.2 | CC(=O)Nc1cc(C)c(C(=O)Nc2cc(-c3cc(CN4CCOCC4)ccc3F)ccc2N2CCN(C)CC2)cn1 [Example 106, 6-acetamido-N-(2′-fluoro-4-(4-methylpiperazin-1-yl)-5′-(morpholinomethyl)-[1,1′-biphenyl]-3-yl)-4-methylnicotinamide] |
| 79 | 79 | 0.56 | CN1CCN(c2ccc(-c3cccc(CN4CCOCC4)c3F)cc2NC(=O)c2c[nH]c(=O)cc2C(F)(F)F)CC1 [Example 23, N-(2′-fluoro-4-(4-methylpiperazin-1-yl)-3′-(morpholinomethyl)-[1,1′-biphenyl]-3-yl)-6-oxo-4-(trifluoromethyl)-1,6-dihydropyridine-3-carboxamide] |
| 71 | 71 | 1.44 | Cc1cc(C(=O)Nc2cc(-c3ccc(OC4CCOCC4)nc3F)ccc2N2CCN(C)CC2)cc(C)c1F [Example 19, 4-fluoro-N-(5-(2-fluoro-6-((tetrahydro-2H-pyran-4-yl)oxy)pyridin-3-yl)-2-(4-methylpiperazin-1-yl)phenyl)-3,5-dimethylbenzamide] |
| 35 | 34.5 | – | CN1CCN(c2ccc(-c3cc(CN4CCOCC4)ccc3Cl)cc2NC(=O)c2c[nH]c(=O)cc2C(F)(F)F)CC1 [Example 86, N-(2′-chloro-4-(4-methylpiperazin-1-yl)-5′-(morpholinomethyl)-[1,1′-biphenyl]-3-yl)-6-oxo-4-(trifluoromethyl)-1,6-dihydropyridine-3-carboxamide] |
| 18 | 18 | 1.71 | CN1CCCN(c2ccc(-c3cc(CN4CCOCC4)ccc3F)cc2NC(=O)c2c[nH]c(=O)cc2C(F)(F)F)CC1 [Example 88, N-(2′-fluoro-4-(4-methyl-1,4-diazepan-1-yl)-5′-(morpholinomethyl)-[1,1′-biphenyl]-3-yl)-6-oxo-4-(trifluoromethyl)-1,6-dihydropyridine-3-carboxamide] |
| 1.7 | 1.6 | 7.9 | C[C@@H]1CN(c2ccc(-c3ccc(C(N)=O)cc3F)cc2NC(=O)c2c[nH]c(=O)cc2C(F)(F)F)C[C@H](C)N1C [Example 117, N-(4′-carbamoyl-2′-fluoro-4-((3S,5R)-3,4,5-trimethylpiperazin-1-yl)-[1,1′-biphenyl]-3-yl)-6-oxo-4-(trifluoromethyl)-1,6-dihydropyridine-3-carboxamide] |
| 17 | 17 | 2.3 | CN1CCN(c2ccc(-c3ccc(N4CCCC4)nc3F)cc2NC(=O)c2c[nH]c(=O)cc2C(F)(F)F)CC1 [Example 22, N-(5-(2-fluoro-6-(pyrrolidin-1-yl)pyridin-3-yl)-2-(4-methylpiperazin-1-yl)phenyl)-6-oxo-4-(trifluoromethyl)-1,6-dihydropyridine-3-carboxamide] |
| 39 | 39 | 2.5 | C[C@@H]1CN(c2ccc(-c3c(F)ccc(C#N)c3F)cc2NC(=O)c2c[nH]c(=O)cc2C(F)(F)F)C[C@H](C)N1C [Example 78, N-(3′-cyano-2′,6′-difluoro-4-((3S,5R)-3,4,5-trimethylpiperazin-1-yl)-[1,1′-biphenyl]-3-yl)-6-oxo-4-(trifluoromethyl)-1,6-dihydropyridine-3-carboxamide] |
